Measurements reported in ChEMBL document CHEMBL1201862, “PubChem BioAssay data set” (2004).
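In this assay, cells in 96-well plates receive the compound at five concentrations for 48 hours. Endpoints are linearly interpolated between the surrounding concentrations. The concentration for 50% growth inhibition is given as GI50.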 Activity calls are given as the source filed them. Cut-off read from the data, not from the text of the source: active = GI50 up to about 1.1 µM and inactive = higher.

Key:
Test in all cases: inhibition of tumour cell growth, NCI panel, 48 h
[1] = tested on: SK-MEL-28
[2] = tested on: IGROV-1
[3] = tested on: CCRF-CEM
[4] = tested on: HCT-116
[5] = tested on: NCI-H460
[6] = tested on: MDA-MB-435
[7] = tested on: LOX IMVI
[8] = tested on: OVCAR-5
[9] = tested on: NCI/ADR-RES
[10] = tested on: HOP-62
[11] = tested on: TK-10
[12] = tested on: MDA-N
[13] = tested on: RXF 393
[14] = tested on: HCC 2998
[15] = tested on: CAKI-1
[16] = tested on: NCI-H226
[17] = tested on: UACC-257
[18] = tested on: UO-31
[19] = tested on: EKVX
[20] = tested on: NCI-H522

Measured: GI50

O=C(Nc1ccccc1)OCCN=c1c2ccccc2ccc2ccccc12
inactive: [1] 23.7 µM | [2] 27.9 µM | [3] 18.9 µM | [4] 16.9 µM | [5] 22.8 µM | [6] 27.6 µM | [7] 20.3 µM | [8] 41.5 µM | [9] 21.3 µM | [10] 28.2 µM | [11] 31.4 µM | [12] 18.5 µM | [13] 23.8 µM | [14] 11.2 µM | [15] 26.4 µM | [16] 32.1 µM | [17] 15.8 µM | [18] 17 µM | [19] 24.9 µM

OC1CC2CCCN(CCc3c1[nH]c1ccccc31)C2 (stereo not given)
inactive: [1] > 100 µM | [3] > 100 µM | [4] > 100 µM | [5] > 100 µM | [6] > 100 µM | [7] > 100 µM | [9] > 100 µM | [11] > 100 µM | [12] > 100 µM | [20] > 100 µM | [14] > 100 µM | [15] > 100 µM | [16] > 100 µM | [17] 67.6 µM | [18] > 100 µM

Nc1ccc(C(=O)O)cc1 [AMINOBENZOIC ACID]
inactive: [1] > 100 µM | [2] > 100 µM | [3] > 100 µM | [4] > 100 µM | [5] > 100 µM | [6] > 100 µM | [7] > 100 µM | [8] > 100 µM | [9] > 100 µM | [10] > 100 µM | [11] > 100 µM | [12] > 100 µM | [20] > 100 µM | [14] > 100 µM | [15] > 100 µM | [16] > 100 µM | [17] > 100 µM | [18] > 100 µM | [19] > 100 µM

C[C@H]1[C@H](C)CC[C@]2(C)CC[C@]3(C)C(=C[C@@H](O)[C@@H]4[C@@]5(C)[C@H](O)[C@@H](O)[C@H](O)C(C)(C)[C@@H]5CC[C@]43C)[C@H]12
inactive: [2] 67.8 µM | [3] > 100 µM | [4] > 100 µM | [5] > 100 µM | [6] > 100 µM | [7] > 100 µM | [8] > 100 µM | [9] > 100 µM | [10] > 100 µM | [12] > 100 µM | [15] > 100 µM | [17] > 100 µM | [18] > 100 µM

NC(Cc1c[nH]c2ccc([N+](=O)[O-])cc12)C(=O)O (stereo not given)
inactive: [1] > 100 µM | [2] > 100 µM | [3] > 100 µM | [4] > 100 µM | [6] > 100 µM | [7] > 100 µM | [8] > 100 µM | [9] > 100 µM | [10] > 100 µM | [11] > 100 µM | [12] > 100 µM | [13] > 100 µM | [20] > 100 µM | [15] > 100 µM | [16] > 100 µM | [17] > 100 µM | [18] > 100 µM | [19] > 100 µM

Cc1cc(C)nc(NC(P(=O)(O)O)P(=O)(O)O)n1
inactive: [2] > 100 µM | [4] > 100 µM | [5] > 100 µM | [7] > 100 µM | [8] > 100 µM | [9] > 100 µM | [10] > 100 µM | [11] > 100 µM | [12] > 100 µM | [13] > 100 µM | [20] > 100 µM | [14] > 100 µM | [15] > 100 µM | [16] > 100 µM | [17] > 100 µM | [18] > 100 µM | [19] > 100 µM

CC(=O)N1N=C(c2ccc3ccccc3c2O)CC1c1ccc(N(C)C)cc1 (stereo not given)
inactive: [1] > 100 µM | [2] > 100 µM | [3] > 100 µM | [4] > 100 µM | [5] > 100 µM | [6] > 100 µM | [8] > 100 µM | [9] > 100 µM | [10] > 100 µM | [11] > 100 µM | [12] > 100 µM | [13] > 100 µM | [20] > 100 µM | [14] > 100 µM | [15] > 100 µM | [16] > 100 µM | [17] > 100 µM | [18] > 100 µM

N#CC(C#N)=CNCCN1CCN(C=C(C#N)C#N)CC1
inactive: [1] > 100 µM | [2] > 100 µM | [4] > 100 µM | [5] > 100 µM | [6] > 100 µM | [7] > 100 µM | [8] > 100 µM | [9] > 100 µM | [10] > 100 µM | [11] > 100 µM | [12] > 100 µM | [20] > 100 µM | [15] > 100 µM | [16] > 100 µM | [17] > 100 µM | [18] > 100 µM | [19] > 100 µM

C[C@]12CCC(=O)C=C1CC[C@@H]1[C@@H]2CC[C@]2(C)C(=O)[C@H](n3ccnc3)C[C@@H]12
inactive: [1] > 100 µM | [2] > 100 µM | [3] 58.6 µM | [4] > 100 µM | [5] > 100 µM | [6] > 100 µM | [7] > 100 µM | [8] > 100 µM | [9] > 100 µM | [11] > 100 µM | [12] > 100 µM | [13] > 100 µM | [20] > 100 µM | [15] > 100 µM | [16] > 100 µM | [17] > 100 µM | [18] > 100 µM | [19] > 100 µM

Cc1cn(C(=O)NC23CC4CC(CC(C4)C2)C3)c(=O)[nH]c1=O
inactive: [1] 67.5 µM | [3] 25.6 µM | [4] 34.4 µM | [5] 42.9 µM | [6] 61.4 µM | [7] 27.5 µM | [8] > 100 µM | [9] 27.4 µM | [10] > 100 µM | [11] 32.8 µM | [12] 13.2 µM | [13] 21.6 µM | [14] 50.4 µM | [15] 32.2 µM | [16] 24.9 µM | [17] 45.1 µM | [18] 69.5 µM | [19] 23.9 µM

O=C(O)CSC(NC(=O)C(C(F)(F)F)C(F)(F)F)(C(F)(F)F)C(F)(F)F
inactive: [1] > 100 µM | [2] > 100 µM | [3] > 100 µM | [4] > 100 µM | [6] > 100 µM | [7] > 100 µM | [8] > 100 µM | [9] > 100 µM | [11] > 100 µM | [12] > 100 µM | [13] 28.4 µM | [14] > 100 µM | [15] 1.38 µM | [17] > 100 µM | [18] > 100 µM | [19] > 100 µM

CS(=O)(=O)OCCCSCCSCCCOS(C)(=O)=O
inactive: [1] > 100 µM | [2] > 100 µM | [3] > 100 µM | [4] > 100 µM | [5] > 100 µM | [6] > 100 µM | [7] > 100 µM | [8] > 100 µM | [9] > 100 µM | [10] > 100 µM | [11] > 100 µM | [12] > 100 µM | [20] > 100 µM | [14] > 100 µM | [17] > 100 µM | [18] > 100 µM | [19] > 100 µM

Cc1cc(=O)n2nc(SCc3ccccc3)sc2n1
inactive: [1] > 100 µM | [2] > 100 µM | [3] > 100 µM | [4] > 100 µM | [5] > 100 µM | [6] 66.4 µM | [7] 77.4 µM | [8] > 100 µM | [9] > 100 µM | [10] > 100 µM | [11] 34.4 µM | [12] > 100 µM | [13] 60.3 µM | [20] > 100 µM | [14] > 100 µM | [16] > 100 µM | [18] 24.3 µM

CC(=O)/C=c1\[nH]/c(=C\C=C\c2ccccc2)c(=O)n1/C=C1\C(=O)Oc2ccccc2C1=O
inactive: [1] > 100 µM | [2] > 100 µM | [3] > 100 µM | [4] > 100 µM | [6] > 100 µM | [7] > 100 µM | [8] > 100 µM | [9] > 100 µM | [11] > 100 µM | [12] > 100 µM | [20] > 100 µM | [15] > 100 µM | [16] > 100 µM | [17] > 100 µM | [18] > 100 µM | [19] 40.6 µM

O=c1[nH]nc(Cc2ccccc2)n1/N=C/c1c[nH]c2ccccc12
inactive: [1] > 100 µM | [2] > 100 µM | [3] > 100 µM | [4] > 100 µM | [5] > 100 µM | [6] 81.7 µM | [7] > 100 µM | [8] > 100 µM | [9] 82.6 µM | [10] 60.7 µM | [11] 35.3 µM | [12] 29.8 µM | [20] 22.9 µM | [14] > 100 µM | [15] 16.7 µM | [16] > 100 µM | [17] 96.2 µM | [18] > 100 µM | [19] 95.1 µM

CC#CC#C/C=C1/C=CC2(CCCCO2)O1 (stereo not given)
inactive: [1] > 100 µM | [2] 70.1 µM | [3] 21.2 µM | [4] > 100 µM | [5] > 100 µM | [6] > 100 µM | [7] 90.2 µM | [8] > 100 µM | [9] > 100 µM | [11] > 100 µM | [12] > 100 µM | [20] 40.1 µM | [14] > 100 µM | [15] > 100 µM | [16] > 100 µM | [17] > 100 µM | [18] 42.9 µM | [19] > 100 µM
